Test results from patent publication US6165977A, “Isozyme-specific activators of protein kinase C methods and compositions” (Board of Trustees of the Leland Stanford Junior University, priority 1997, dated 2000).
No end group written: not given here.

Key:
cardiac myocytes [1] = experiment: Protection of cardiac myocytes from 9 hours of hypoxia by peptides, cell viability assay; format: cell-based, rat; conditions: after 9 hours of hypoxia; peptide introduced by saponin permeabilization; average of two experiments
Method: (§1) Primary cell cultures were prepared as previously described (Disatnik, et al., 1994). Briefly, ventricles from day-old Sprague-Dawley rats were minced, and single isolated myocytes were obtained by alternating cycles of room temperature trypsinization and mechanical dissociation. Cells were washed and preplated in medium 199 with Hanks' salt solution (Gibco/BRL Life Technologies, Gaithersburg, Md.) containing 10% fetal bovine serum (Hyclone Laboratories, Inc., Logan, Utah) to reduce the number of contaminating non-myocardial cells (NMCs). After 30 minutes nonattached cardiac myocytes were collected and replated at a density of 800 cells per mm^2 into 8-well glass chamber slides (Nunc, Naperville, Ill.) for cell viability assays and immunofluorescence staining, into 6-well plastic culture plates (Fisher Scientific, Pittsburgh, Pa.) for lactate dehydrogenase (LDH) assays, or into 100 mm glass culture dishes for Western blot analyses. […]
(§2) Following treatment of cardiac myocytes grown on 8-well chamber slides, living and dead cells were distinguished using the "EUKOLIGHT" Viability/Cytotoxicity assay (Molecular Probes, Eugene, Oreg.). […] The number of viable (green fluorescent by calcine) and non-viable (red fluorescent by ethidium) cardiac myocytes present in 10-20 random microscopic fields per condition per experiment was recorded. […]

βPKC = experiment: Western blot of PMA-induced PKC translocation from cell soluble to particulate fraction; format: cell-based, rat; conditions: 10 nM PMA for 10 minutes, cardiac myocytes
Method: (§3) Briefly, ventricles from day-old Sprague-Dawley rats were minced, and single isolated myocytes were obtained by alternating cycles of room temperature trypsinization and mechanical dissociation. […] After 30 minutes nonattached cardiac myocytes were collected and replated at a density of 800 cells per mm^2 into 8-well glass chamber slides (Nunc, Naperville, Ill.) for cell viability assays and immunofluorescence staining, into 6-well plastic culture plates (Fisher Scientific, Pittsburgh, Pa.) for lactate dehydrogenase (LDH) assays, or into 100 mm glass culture dishes for Western blot analyses. […] Experiments were conducted on culture days 6-8.
(§4) Following treatment, medium from one plate was removed, and cells were washed twice with ice-cold phosphate-buffered saline (PBS). 1.5 ml of chilled homogenization buffer consisting of 10 mM Tris-HCl pH 7.4, 1 mM EDTA, 1 mM EGTA, 0.25 M sucrose, and […] each of phenylmethylsulfonyl fluoride, soybean trypsin inhibitor, leupeptin, and aprotinin was added to each dish. Myocytes were scraped from the plates and triturated 3 times with a tuberculin syringe attached to a 22-gauge needle. […] Supernatants were concentrated to a volume of […] with a Centricon 30 filtration unit (Amicon, Beverly, Mass.).

δPKC = target: T1, δPKC (Rattus norvegicus, UniProt P09215); experiment: as above; format: cell-based; conditions: 10 nM PMA for 10 minutes, cardiac myocytes
T1 construct: Western Blot of cardiac myocyte soluble and particulate fractions; endogenous in cells; host or cells: primary neonatal Sprague-Dawley rat ventricular myocytes
T1 sequence (P09215 whole entry): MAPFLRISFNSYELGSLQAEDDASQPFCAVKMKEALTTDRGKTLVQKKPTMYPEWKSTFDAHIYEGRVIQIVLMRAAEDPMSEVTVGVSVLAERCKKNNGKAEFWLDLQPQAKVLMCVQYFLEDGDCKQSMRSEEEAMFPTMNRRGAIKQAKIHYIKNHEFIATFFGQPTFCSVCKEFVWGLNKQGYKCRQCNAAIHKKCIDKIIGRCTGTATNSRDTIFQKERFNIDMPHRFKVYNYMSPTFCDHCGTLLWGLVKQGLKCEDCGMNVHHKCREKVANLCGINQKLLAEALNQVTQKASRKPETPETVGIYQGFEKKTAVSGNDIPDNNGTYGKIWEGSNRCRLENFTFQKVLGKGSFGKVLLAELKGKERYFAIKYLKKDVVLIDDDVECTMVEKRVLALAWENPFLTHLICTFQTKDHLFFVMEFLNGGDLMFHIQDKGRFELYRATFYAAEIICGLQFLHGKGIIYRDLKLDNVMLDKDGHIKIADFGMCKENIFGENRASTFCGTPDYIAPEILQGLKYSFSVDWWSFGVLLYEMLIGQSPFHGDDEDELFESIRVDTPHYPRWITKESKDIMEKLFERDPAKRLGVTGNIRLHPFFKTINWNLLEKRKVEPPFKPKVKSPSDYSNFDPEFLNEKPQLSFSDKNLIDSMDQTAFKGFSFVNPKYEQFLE
Method: Primary cell cultures were prepared as previously described (Disatnik, et al., 1994). Briefly, ventricles from day-old Sprague-Dawley rats were minced, and single isolated myocytes were obtained by alternating cycles of room temperature trypsinization and mechanical dissociation. Cells were washed and preplated in medium 199 with Hanks' salt solution (Gibco/BRL Life Technologies, Gaithersburg, Md.) containing 10% fetal bovine serum (Hyclone Laboratories, Inc., Logan, Utah) to reduce the number of contaminating non-myocardial cells (NMCs). […]
Western blot analyses of cardiac myocytes grown on 100 mm glass dishes were carried out as previously described (Liu, Y., et al., 1995). […] Soluble and particulate fractions were then subjected to 12% SDS-PAGE and transferred to nitrocellulose sheets. βPKC levels were determined using monoclonal anti-βPKC antibodies (Seikagaku Kogyo, Tokyo, Japan) diluted 1:1000 followed by incubation with rabbit anti-mouse IgG antibodies (Cappel, Durham, N.C.), also at 1:1000 dilution. δPKC and εPKC levels were determined using rabbit polyclonal anti-δPKC and anti-εPKC antibodies (Gibco/BRL), each at 1:300 dilution. Western blots were then incubated with ^125 I-protein A (ICN Biomedicals, Inc., Irvine, Calif.), and PKC immunoreactive bands were detected by autoradiography.
The ability of PMA to activate the PKC isozymes αPKC, βPKC, δPKC and εPKC was evaluated. […]

εPKC [2] = target: T2, εPKC (Rattus norvegicus, UniProt P09216); experiment: as above; format: cell-based; conditions: 10 nM PMA for 10 minutes, cardiac myocytes
T2 construct: Western Blot of cardiac myocyte soluble and particulate fractions; endogenous in cells; host or cells: primary neonatal Sprague-Dawley rat ventricular myocytes
T2 sequence (P09216 1-737): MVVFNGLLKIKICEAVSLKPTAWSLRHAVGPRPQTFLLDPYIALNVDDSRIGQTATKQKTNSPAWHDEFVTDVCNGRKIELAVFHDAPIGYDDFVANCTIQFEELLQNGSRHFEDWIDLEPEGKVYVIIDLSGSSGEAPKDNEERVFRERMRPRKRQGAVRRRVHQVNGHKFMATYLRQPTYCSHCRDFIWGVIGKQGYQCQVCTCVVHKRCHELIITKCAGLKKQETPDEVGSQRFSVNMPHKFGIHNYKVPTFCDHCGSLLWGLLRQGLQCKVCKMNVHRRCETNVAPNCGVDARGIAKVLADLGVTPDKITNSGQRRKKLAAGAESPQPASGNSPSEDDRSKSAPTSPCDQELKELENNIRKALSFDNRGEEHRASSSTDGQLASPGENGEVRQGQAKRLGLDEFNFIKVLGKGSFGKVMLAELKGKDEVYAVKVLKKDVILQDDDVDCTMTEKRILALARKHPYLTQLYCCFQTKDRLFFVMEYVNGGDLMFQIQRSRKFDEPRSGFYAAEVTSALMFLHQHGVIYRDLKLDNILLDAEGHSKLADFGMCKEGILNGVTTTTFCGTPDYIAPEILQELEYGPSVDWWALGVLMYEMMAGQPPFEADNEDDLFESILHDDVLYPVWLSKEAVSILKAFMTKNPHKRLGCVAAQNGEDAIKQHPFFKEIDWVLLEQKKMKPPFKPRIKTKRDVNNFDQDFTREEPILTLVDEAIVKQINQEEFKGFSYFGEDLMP
Method: as §3, §4

cardiac myocytes [3] = experiment: PMA-induced protection of cardiac myocytes from prolonged hypoxia, cell viability assay; format: cell-based, rat; conditions: 10 nM PMA for 10 minutes, washed, then 9 hours of hypoxia
Method: as §1, §2

εPKC [4] = target: T2, εPKC; experiment: Effect of isoform-specific inhibitory peptides on PMA-induced PKC translocation, Western blot; format: cell-based; conditions: peptide introduced by permeabilization, 10 nM PMA for 10 minutes
Method: as §3, §4

εPKC [5] = target: T2, εPKC; experiment: Peptide-induced translocation of PKC in cardiac myocytes; format: cell-based; conditions: 10 μg/ml in permeabilization buffer
Method: as §1
Immunofluorescence staining of cardiac myocytes grown on 8-well glass chamber slides was carried out as previously described (Hauser, et al., 1993). […] Images were recorded on Kodak TMAX 400 film with exposure time of 1 second for all photomicrographs and were processed by an automated, commercial developer without additional adjustment. […]

SLNPEWNET [β pseudo-RACK peptide]
viable cells (cardiac myocytes [1]): 35%

CCCCCCCCCCCCCC(=O)O[C@@H]1[C@@H](C)[C@@]2(O)[C@@H](C=C(CO)C[C@]3(O)C(=O)C(C)=C[C@@H]23)[C@@H]2C(C)(C)[C@]12OC(C)=O [PMA, 4β-phorbol 12-myristate 13-acetate]
translocation of βPKC from the cell soluble to the cell particulate fraction (βPKC): minimal translocation
translocation of δPKC in response to PMA (δPKC): robust
translocation of εPKC in response to PMA (εPKC [2]): robust
increase in the proportion of surviving myocytes versus control (cardiac myocytes [3]): 34%

EAVSLKPT [εV1-2]
reduction in the particulate signal compared with PMA alone (densitometry) (εPKC [4]): 23%

HDAPIGYD [εV1-7]
cells with translocation of εPKC (εPKC [5]): 70%
viable cells (cardiac myocytes [1]): 65%
